Legend:
human GR [1] = target: T1, human GR (Homo sapiens, UniProt P04150); assay: Trans-Activation Modulation of Glucocorticoid Receptor (GRAMMER), MMTV-LUC reporter, agonist mode; assay type: cell-based; design: endogenous in cells; conditions: for Emax: A549, A549 cells, maximum activity, read-out: Transactivation A549 Cells GRAMMER Emax; for EC50: A549 cells, inflection point, read-out: Transactivation A549 Cells GRAMMER IP
T1 sequence (P04150 1-777): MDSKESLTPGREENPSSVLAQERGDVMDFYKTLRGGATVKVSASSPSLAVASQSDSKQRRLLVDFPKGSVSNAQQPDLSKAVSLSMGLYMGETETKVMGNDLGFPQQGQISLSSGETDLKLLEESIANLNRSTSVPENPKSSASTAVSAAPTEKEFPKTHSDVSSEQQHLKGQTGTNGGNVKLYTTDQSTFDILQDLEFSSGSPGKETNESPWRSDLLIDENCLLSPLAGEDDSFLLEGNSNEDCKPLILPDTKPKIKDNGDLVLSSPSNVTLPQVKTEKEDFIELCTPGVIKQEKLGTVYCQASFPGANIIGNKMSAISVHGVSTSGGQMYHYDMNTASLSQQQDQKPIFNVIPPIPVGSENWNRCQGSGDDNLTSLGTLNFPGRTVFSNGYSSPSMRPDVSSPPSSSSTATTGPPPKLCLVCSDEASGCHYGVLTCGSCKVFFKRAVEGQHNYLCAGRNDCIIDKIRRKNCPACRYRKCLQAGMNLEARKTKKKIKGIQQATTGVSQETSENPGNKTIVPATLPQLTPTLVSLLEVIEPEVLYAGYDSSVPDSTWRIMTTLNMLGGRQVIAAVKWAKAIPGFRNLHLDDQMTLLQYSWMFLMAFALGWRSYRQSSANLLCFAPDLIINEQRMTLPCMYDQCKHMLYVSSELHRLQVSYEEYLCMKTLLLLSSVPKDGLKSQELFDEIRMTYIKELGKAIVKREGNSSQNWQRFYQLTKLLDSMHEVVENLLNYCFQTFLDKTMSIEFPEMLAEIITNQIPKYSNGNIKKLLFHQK
Summary of the method: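 Readout is luciferase from a modified MMTV LTR promoter after 24 h compound exposure alongside 10 nM dexamethasone (100% activity reference), DMSO ≤1%.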

human GR [2] = target: T1, human GR; assay: Transrepression Assay (GITAR), TNFα-β-lactamase reporter in U937 cells; assay type: cell-based; design: U937 cells contain an endogenous glucocorticoid receptor (GR); endogenous in cells; host or cells: U937 cells stably transfected with the TNF-alpha promoter/beta-lactamase reporter; conditions: for GITAR > GRAMM % SEP: GITAR Emax minus GRAMMER Emax; for EC50: U937 cells, inflection point, read-out: Transrepression U937 Cells GITAR IP
Summary of the method: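 First, U937 reporter cells (TNF-α promoter–β-lactamase, native GR) received compound for 30–45 min at 37 °C. Next, PMA (5 ng/ml) and LPS (100 ng/ml) final were added for about 18 hr. Finally, CCF2-AM loading gave the read-out, with 100 nM dexamethasone as 100%.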

[3] = U-937, U937 cells, maximum activity, read-out: Transrepression U937 Cells GITAR Emax
[4] = U-937, activity repressed by 100 nM dexamethasone alone set as 100%, read-out: maximal activity in the transrepression (GITAR) assay

SMILES	Emax (human GR [1])	EC50 (human GR [1])	GITAR > GRAMM % SEP (human GR [2])	EC50 (human GR [2])	Emax (human GR [2]; [3])	Emax (human GR [2]; [4])
C[C@]12Cc3cnn(-c4ccc(F)cc4)c3C=C1CC[C@@H]2CN(CC(O)C(F)(F)F)S(=O)(=O)Cc1ccccc1C(N)=O (stereo partly drawn) [Example 167, 2-({[{[(4αR,5S)-1-(4-fluorophenyl)-4α-methyl-1,4,4α,5,6,7-hexahydrocyclopenta[f]indazol-5-yl]methyl}(3,3,3-trifluoro-2-hydroxypropyl)amino]sulfonyl}methyl) benzamide]	74.9%	150 nM	12.5%	159 nM	87.4%	> 5%
Cc1noc(C)c1S(=O)(=O)N(C[C@H]1CCC2=Cc3c(cnn3-c3ccc(F)cc3)C[C@@]21C)C[C@@H](C)O [Example 168, N-{[(4αR,5S)-1-(4-fluorophenyl)-4α-methyl-1,4,4α,5,6,7-hexahydrocyclopenta[f]indazol-5-yl]methyl}-N-[(2R)-2-hydroxypropyl]-3,5-dimethylisoxazole-4-sulfonamide]	48.1%	123 nM	35.0%	119 nM	83.1%	> 5%
